# From PubChem BioAssay AID1963439 (Molecular Pharmacology Branch, DTP, NCI, 2024)
# Tested on: NCI-H196 complex spheroids with HUVEC/MSC, growth % T/C
# Assay: Anticancer human tumor NCI-H196 cell line growth inhibition [Asc];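 also: spheroids exposed to compound for 7 days before measurement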;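 as to viability, T/C: 100% = DMSO vehicle control wells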
# Settings: for IC50: curve of first compound; for viability, T/C: stronger effect = lower value
# Procedure: Multicellular complex tumor spheroid response to apoptosis pathway targeting inhibitors Alrizomadlin, Pelcitoclax, and Dasminapant in combination with a variety of drugs and investigational agents in selected tumor cell lines
# The MDM2 inhibitor alrizomadlin, the Bcl-2/Bcl-xL inhibitor pelcitoclax, and the IAPs inhibitor dasminapant were evaluated both individually and in combination with standard of care and investigational anticancer small molecules within a complex spheroid model of solid tumors. . Complex spheroids include a stromal component modeled by human endothelial cells (HUVEC) and fibroblasts modeled by human mesenchymal stem cells (MSCs). The concentration ranges selected for each drug and investigational agent were based upon clinically achievable concentrations if the clinical Cmax of the agent was known.
# Compounds. The drugs and investigational agents: alrizomadlin (APG-115; NSC831270), pelcitoclax (APG-1252; NSC835773), dasminapant (APG-1387;NSC834197), TAK-243 (NSC785004), copanlisib (NSC809693), olaparib (NSC753686), talazoparib (NSC767125), cobimetinib (NSC 768068), eltanexor (KPT-8602, NSC 794443), abemaciclib (NSC 768073), sotorasib (NSC818433), adagrasib (NSC 831453), MRTX-1133 (NSC 836407), Iadademestat (ORY1001, NSC 806812), and RMC-4630 (NSC839698), were obtained from the NCI Developmental Therapeutics Program Chemical Repository. The FDA-approved anticancer drug set is available from the Developmental Therapeutics Program at https://dtp.cancer.gov/organization/dscb/obtaining/available plates.htm. […] The stock solutions were prepared in dimethyl sulfoxide (DMSO, Sigma-Aldrich, St. Louis, MO, cat. D2650) at 800-fold the tested concentration and stored at -70 degrees C prior to their use. All drugs and investigational agents were tested over a range starting from a high concentration at or near the clinical Cmax and decreasing in half-log increments. If the clinical Cmax for an agent had not been determined, the highest concentration tested was 10 microM.
# The patient-derived cancer (PDC) cell lines include five colon adenocarcinomas: 186277-243-T-J2-PDC, 616215-338-R-J1-PDC, 439559-082-T-J2-PDC, 463943-066-T-J2-PDC, and 519858-162-T-J1-PDC; three pancreatic carcinomas: 323965-272-R-J2-PDC, 521955-158-R6-J3-PDC, and 521955-158-R2-J5-PDC; two uterine sarcomas: 327498-152-R-J2-PDC and 993429-296-R-J1-PDC; two rhabdomyosarcomas: 755483-174-R-J1-PDC and 772245-204-R-J1-PDC; two soft tissue sarcomas: 126254-015-R-J1-PDC and 494315-158-R-J1-PDC; two malignant fibrous histiocytomas: 317291-083-R-J1-PDC and 596521-263-R-J1-PDC; two breast carcinomas: 171881-019-R-J1-PDC and 885512-296-R-J2-PDC; and one ovarian carcinoma: 6556581-035-R-J-PDC were obtained from the NCI PDMR, (https://pdmr.cancer.gov). The established cell lines HSSY-2 synovial sarcoma (RRID:CVCL 8719), SYO-1 synovial sarcoma (RRID:CVCL_7146), MPNST malignant peripheral neural sheath tumor were obtained from the Sloan Kettering Institute. The following established cell lines were purchased from the American Type Culture Collection (ATCC, Manassas, VA), Sor the received from the NCI repository:, PANC-1 pancreatic carcinoma (CRL-1469, RRID:CVCL_0480), OVCAR-5 ovarian carcinoma (RRID:CVCL_1628), OVCAR-8 ovarian carcinoma (RRID:CVCL_1629), , MCF-7 breast carcinoma (CRL-12584, RRID:CVCL_0031), MDA-MB-231 breast carcinoma (CRL-12532, RRID:CVCL_0062), NCI-H1876 small cell lung carcinoma (CRL-5902, RRID:CVCL_1503), NCI-H510A small cell lung carcinoma (HTB-184, RRID:CVCL_1565), NCI-H1417 (CRL-5869, RRID:CVCL_1469), and NCI-H196 small cell lung carcinoma (CRL-5823, RRID:CVCL_1509). Dr. Peter Houghton (Greehey Children's Cancer Research Institute, University of Texas Health Science Center, San Antonio, TX) provided Rh-18 rhabdomyosarcoma (RRID:CVCL_1659). Pooled donor human umbilical vein endothelial cells (HUVEC, Lonza, cat. CC-2519) and human mesenchymal stem cells (hMSC, Lonza, cat. PT-2501) were purchased from Lonza (Walkersville, MD).
# Cell Culture. […]
compound,measurement,setting,value
C=C(F)C(=O)N1CCN(c2nc(OCC3CCCN3C)nc3c2CCN(c2cccc4cccc(Cl)c24)C3)CC1CC#N (stereo not given) + Cc1c(S(C)(=O)=O)c(-c2cc(F)cc(N3CCN(c4ccc(NS(=O)(=O)c5ccc(NC(CCN6CCC(C(=O)OCCCP(=O)(O)O)CC6)CSc6ccccc6)c(S(=O)(=O)C(F)(F)F)c5)cc4)CC3)c2)c(-c2ccc(Cl)cc2)n1C(C)C,IC50,second compound 0.1 µM,> 10 µM
same,IC50,second compound 0.316 µM,> 10 µM
same,IC50,second compound 1 µM,5.96 µM
same,IC50,second compound 3.16 µM,5.08 µM
same,IC50,second compound 10 µM,4.48 µM
same,"viability, T/C","second compound 0.1 µM, first compound 0.0316 µM",95.8%
same,"viability, T/C","second compound 0.1 µM, first compound 0.1 µM",94.5%
same,"viability, T/C","second compound 0.1 µM, first compound 0.316 µM",92%
same,"viability, T/C","second compound 0.1 µM, first compound 1 µM",99.9%
same,"viability, T/C","second compound 0.1 µM, first compound 3.16 µM",107%
same,"viability, T/C","second compound 0.1 µM, first compound 10 µM",74.8%
same,"viability, T/C","second compound 0.316 µM, first compound 0.0316 µM",87.6%
same,"viability, T/C","second compound 0.316 µM, first compound 0.1 µM",95%
same,"viability, T/C","second compound 0.316 µM, first compound 0.316 µM",99.3%
same,"viability, T/C","second compound 0.316 µM, first compound 1 µM",86.4%
same,"viability, T/C","second compound 0.316 µM, first compound 3.16 µM",87.4%
same,"viability, T/C","second compound 0.316 µM, first compound 10 µM",83.5%
same,"viability, T/C","second compound 1 µM, first compound 0.0316 µM",96.6%
same,"viability, T/C","second compound 1 µM, first compound 0.1 µM",81.3%
same,"viability, T/C","second compound 1 µM, first compound 0.316 µM",93.5%
same,"viability, T/C","second compound 1 µM, first compound 1 µM",74.9%
same,"viability, T/C","second compound 1 µM, first compound 3.16 µM",82%
same,"viability, T/C","second compound 1 µM, first compound 10 µM",25.5%
same,"viability, T/C","second compound 3.16 µM, first compound 0.0316 µM",82.7%
same,"viability, T/C","second compound 3.16 µM, first compound 0.1 µM",80.6%
same,"viability, T/C","second compound 3.16 µM, first compound 0.316 µM",78.5%
same,"viability, T/C","second compound 3.16 µM, first compound 1 µM",83.7%
same,"viability, T/C","second compound 3.16 µM, first compound 3.16 µM",85.5%
same,"viability, T/C","second compound 3.16 µM, first compound 10 µM",4.09%
same,"viability, T/C","second compound 10 µM, first compound 0.0316 µM",75.5%
same,"viability, T/C","second compound 10 µM, first compound 0.1 µM",70.1%
same,"viability, T/C","second compound 10 µM, first compound 0.316 µM",70.4%
same,"viability, T/C","second compound 10 µM, first compound 1 µM",67.1%
same,"viability, T/C","second compound 10 µM, first compound 3.16 µM",68.5%
same,"viability, T/C","second compound 10 µM, first compound 10 µM",8.1%
